Experimental data published in patent US20170014391A1, “SGK1 INHIBITORS FOR TREATMENT OF PROSTATE CANCER” (Sloan-Kettering Institute for Cancer Research, priority 2013, published 2017).
“And” between values parts separate entries of the source, which are not always exact repeats. Equal entries are not always repeated.

Key:
[1] = tested on: AR target gene expression; experiment: AR target gene expression with GR antagonists; type: cell-based
[2] = tested on: LNCaP/AR xenograft tumors; experiment: LNCaP/AR xenografts in castrate mice, long-term antiandrogen treatment (pilot cohort); type: in vivo; conditions: for Mean Tumor Volume (mm^3): Day 0: 10 mg/kg oral gavage 5 days a week, start of treatment; for % Regression: D28 Mean: 10 mg/kg, day 28; for Mean Tumor Volume (mm^3) at harvest: harvest after progression on continued treatment; for Day of Harvest: Mean: tumors harvested after progression
[3] = tested on: LNCaP/AR xenograft tumors; conditions: previously shown (Clegg et al., 2012; Tran et al., 2009); cited from earlier work
[4] = in vivo; cited from earlier work
GR mRNA (NR3C1) = experiment: GR mRNA (RT-qPCR) in LNCaP/AR xenograft tumors, validation cohort; type: in vivo, mice; parameters: key: expression relative to beta-actin or GAPDH; conditions: individual tumor with acquired resistance to the drug (10 mg/kg), relative expression
Excerpt: (§1) RNA was extracted from cell lines using the RNeasy kit (Qiagen). Frozen tumors were lysed with lysing matrix A using the Fast-Prep24 tissue homogenizer system (MP BIOMEDICALS) in Trizol (Invitrogen) followed by clean up with RNeasy (Qiagen). cDNA was generated with the High Capacity cDNA Reverse Transcription Kit (Applied Biosystems.) Data was quantified relative to either beta Actin or GAPDH expression and relative expression was generally plotted. Primers for ACTB (PPH00073E), NDRG1(PPH02202B), NR3C1(PPH02652A), and SGK1(PPH00387E), STK39 (PPH14239B), GRB10 (PPH05866B), TIPARP (PPH07883A), PMEPA1 (PPH01013B) were purchased from SA Biosciences. Other qPCR primers are as follows: […]

[5] = tested on: AR target genes in LREX′ cell line; experiment: Expression of AR target genes in LREX′ cell line (RT-qPCR); type: cell-based
Excerpt: A. Normalized expression array signal (Illumina HT-12) of a suite of 74 AR target genes in control (n=10), 4 day (n=8), and LREX′ (n=8, right) xenograft tumors. Genes are ranked by degree of restoration of expression in resistant tissue ((Res-4 day)/(Control-4 day)). All resistant tissues were continued on anti-androgen treatment through time of harvest. B. Fractional restoration values of each of the 74 AR targets in LREX′ xenografts (n=8) or resistant tissues from the validation cohort (n=12, see also FIG. S3). C. GR mRNA in resistant tissues used in B. D. Expression of AR target genes in the LREX′ cell line in steroid depleted media after 8 hours of treatment with the indicated agonists, in vitro. Enzalutamide=10 micromolar, V=Vehicle.+/−s.e.m. See also FIGS. S3, S4.
A. LnCaP/AR cells engineered to express GFP or GR were treated with indicated drugs. […] D. Control or AR siRNA knock-down in LREX′ followed by treatment with indicated drugs. […] Cells were treated in charcoal stripped media. Expression determined by RT-qPCR+/−s.e.m.
LREX′ cells were derived from a single enzalutamide resistant tumor that was harvested, disaggregated with collagenase treatment, and then maintained in RPMI supplemented with 20% FBS and 1 μM enzalutamide. Cells were initially grown on collagen-coated flasks until confluent and then were maintained on standard tissue culture dishes. CS1 were similarly derived from vehicle treated tumors and maintained in standard LNCaP/AR media. LNCaP/AR and LREX′ cells were cultured in phenol-red free RPMI with 10% charcoal-stripped FBS prior to drug treatments.
as §1

GR mRNA [6] = experiment: GR mRNA in LREX′ cell line in vitro; type: cell-based
Excerpt: (§2) A. GR mRNA in LREX′ xenografts. […] . […] C. […] AUC=area under curve. […] . […] See also FIG. S7.
as §1

GR [7] = biological target: GR (Homo sapiens, UniProt P04150); conditions: patients with Cushing syndrome; cited from earlier work
Chain of GR (Homo sapiens, UniProt P04150) (P04150 whole entry): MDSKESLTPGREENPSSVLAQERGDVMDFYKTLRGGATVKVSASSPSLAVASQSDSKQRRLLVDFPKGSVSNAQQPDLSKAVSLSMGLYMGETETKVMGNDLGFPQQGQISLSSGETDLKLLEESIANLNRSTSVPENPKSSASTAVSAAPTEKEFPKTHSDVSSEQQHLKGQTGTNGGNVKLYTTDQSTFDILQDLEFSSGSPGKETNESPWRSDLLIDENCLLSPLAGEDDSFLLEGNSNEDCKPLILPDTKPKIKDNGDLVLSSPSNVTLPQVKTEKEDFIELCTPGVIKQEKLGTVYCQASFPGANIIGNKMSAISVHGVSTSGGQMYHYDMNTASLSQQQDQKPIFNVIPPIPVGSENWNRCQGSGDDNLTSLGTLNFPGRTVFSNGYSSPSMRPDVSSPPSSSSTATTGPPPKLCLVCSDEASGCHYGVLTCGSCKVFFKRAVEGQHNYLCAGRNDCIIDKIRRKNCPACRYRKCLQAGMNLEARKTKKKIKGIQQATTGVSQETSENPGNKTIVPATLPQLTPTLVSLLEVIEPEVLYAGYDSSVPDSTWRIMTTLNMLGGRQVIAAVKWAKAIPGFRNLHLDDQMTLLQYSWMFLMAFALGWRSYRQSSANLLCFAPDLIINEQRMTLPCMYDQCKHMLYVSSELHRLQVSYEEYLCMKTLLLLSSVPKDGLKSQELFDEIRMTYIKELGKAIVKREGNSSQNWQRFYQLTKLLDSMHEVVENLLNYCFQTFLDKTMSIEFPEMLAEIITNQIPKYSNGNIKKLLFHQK

VCaP cells [8] = experiment: VCaP in vitro growth assay (CellTiter-Glo); type: cell-based; conditions: Enz 10 micromolar, standard culture conditions
Procedure: Enz=10 micromolar, Dex=100 nM, CMP 15=1 micromolar. A. Western blot analysis of prostate cancer cell lines. B, C and D. Cell viability assessed by CellTiter-Glo (Promega) assay and normalized to day 1 value after indicated treatments+/−s.e.m. E. Confirmation of GR knock-down by western blot after infection with GR targeting shRNA. F. Apoptosis as assessed by cPARP western blot after 3 days of indicated treatment. G. A suite of AR targets relevant to VCaP was defined (see methods) and normalized expression of each gene after 24 hours of indicated drug treatments is depicted by heat map and ranked by degree of induction with Dex. H. Expression of the top two genes from […]. (KLK2 and FKBP5) after 24 hours of indicated treatments+/−s.e.m. See also FIG. S6.
Viability is plotted normalized to day 1.

[9] = tested on: GR protein in LREX′ cells; experiment: Intracellular GR flow cytometric analysis of LREX′ cells
Procedure: (§3) E. Intracellular GR flow cytometric analysis of indicated cells at indicated times points.
(§4) Cells were re-suspended in Fixation/Permeabilization working solution (eBioscience; San Diego, Calif., USA) at a concentration of 1-2×10^6 cells/ml for 30 minutes at room temperature. The cells were subsequently stained with primary antibodies, Rabbit (DA1E) mAb IgG XP® Isotype Control, androgen receptor (D6F11) XP® Rabbit mAb, or glucocorticoid receptor (D6H2L) XP® Rabbit mAb (Cell Signaling Technology; Danvers, Mass., USA) for 20 minutes at room temperature. The cells were washed twice with Flow Cytometry Staining Buffer (eBioscience; San Diego, Calif., USA), and then stained with secondary antibody, Allophycocyanin-AffiniPure F(ab′)2 Fragment Donkey Anti-Rabbit IgG (Jackson ImmunoResearch Laboratories, Inc.; Westgrove, Pa., USA) for 20 minutes at room temperature. Following two more washes, the cells were re-suspended in Flow Cytometry Staining Buffer and analyzed by flow cytometry on a LSRII (BD Biosciences; San Jose, Calif., USA) using FlowJo software (Tree Star, Ashland, Oreg., USA). For GR staining, cells were maintained in their standard media and treated with dexamethasone for 20 minutes prior to harvest to fully expose antigen.

[10] = Tran et al., 2009; cited from earlier work
DU145 and PC3 cells = conditions: AR-negative cells; cited from earlier work
LnCaP/AR and sub-lines = experiment: In vitro growth by cell counting (Vi-cell); conditions: 1 micromolar, FIG. S7B
Procedure: B. Relative cell numbers determined by cell counting (Vi-cell) of indicated cells with vehicle or 1 micro-molar enzalutamide treatment.
LnCaP/AR and sub-lines: Equivalent numbers of cells were plated and then harvested and counted in triplicate at indicated time points using the Beckman Coulter Vi-Cell XR. Cells were passaged at each time point and identical numbers of cells re-plated. Fold increase in cell numbers were determined for each time interval.

[11] = tested on: GR protein in CS1 or LnCaP/AR; experiment: Intracellular GR flow cytometric analysis of CS1 or LnCaP/AR cells; conditions: enzalutamide 1 micromolar, 4 week experiment
Procedure: as §3, §4

GR mRNA [12] = experiment: GR mRNA in LREX′ xenografts after enzalutamide discontinuation; type: in vivo, mice; conditions: 8 days after discontinuation, after 7 weeks of 10 mg/kg
Excerpt: as §2, §1

VCaP cells [13] = conditions: Tran et al., 2009; cited from earlier work
LREX′ cells = experiment: Expression profiling (global transcriptome) of LREX′ cells; type: cell-based; conditions: enzalutamide 10 micromolar
GR [14] = experiment: Bone marrow evaluation: GR IHC of tumor cells in patients receiving enzalutamide; type: in vivo; conditions: bone metastases, enzalutamide 160 mg daily
Procedure: Patients were treated with enzalutamide 160 mg daily. Bone marrow biopsy and aspirate (˜5 mL) were performed before treatment and at week 8. The bone marrow specimens were obtained by transiliac biopsy, and samples were processed according to standard MD Anderson Cancer Center decalcification and fixation procedures. After pathologic evaluation, samples were stored in the MD Anderson Cancer Center Prostate Cancer Tissue Bank. Imaging studies were performed at the time of suspected prostate cancer progression or at the treating physician's discretion, but generally not prior to 12 weeks post-treatment initiation. […] Retrospective analysis for GR was performed by IHC on […] formalin-fixed, paraffin-embedded bone marrow biopsy sections with anti-GR at a dilution of 1:200 (BD Transduction Laboratories #611227). A Dako autostainer and standard 3,3-diaminobenzidine were used. GR expression was assessed in a blinded fashion by two pathologists scoring at least 100 tumor cells per specimen. Plotted are either data from all specimens or only from patients with usable material at baseline and 8 weeks.

PSA = experiment: Maximal PSA decline in patients receiving enzalutamide; type: in vivo; conditions: enzalutamide 160 mg daily
[15] = steroid depleted media, 8 hours
[16] = LREX′^off, enzalutamide 1 micromolar
[17] = enzalutamide 10 micromolar, 8 hours

CC#C[C@]1(O)CCC2C3CCC4=CC(=O)CCC4=C3[C@@H](c3ccc4c(c3)OCO4)C[C@@]21C (stereo partly drawn) [ORG34517]
effect on AR target gene expression [1]: activate

CNC(=O)c1ccc(N2C(=S)N(c3ccc(C#N)c(C(F)(F)F)c3)C(=O)C23CCC3)cc1F [RD162]
Mean Tumor Volume (mm^3): Day 0 [2]: 379 mm^3
% Regression: D28 Mean [2]: 80%
Mean Tumor Volume (mm^3) at harvest [2]: 554 mm^3
Day of Harvest: Mean [2]: D173 days
LNCaP/AR xenograft tumors during the first 28 days of treatment [3]: regress

CC(C)C(=O)Nc1ccc([N+](=O)[O-])c(C(F)(F)F)c1 [flutamide]
Distribution: Protein-binding [4]: Distribution: Protein-binding: 90%
Excretion [4]: Urine, faeces (small amounts)

CNC(=O)c1ccc(N2C(=S)N(c3cnc(C#N)c(C(F)(F)F)c3)C(=O)C23CCC3)cc1F [ARN-509]
GR mRNA Expression (GR mRNA (NR3C1); listed as ARN): 47.4 and 41.6 and 30.2 and 14.5 and 11.4 and 1.4 and 0.8 and 172.1 and 103.8
Mean Tumor Volume (mm^3): Day 0 [2]: 341 mm^3
% Regression: D28 Mean [2]: 71%
Mean Tumor Volume (mm^3) at harvest [2]: 337 mm^3
Day of Harvest: Mean [2]: D145 days
LNCaP/AR xenograft tumors during the first 28 days of treatment [3]: regress

C[C@]12CCC(=O)C[C@@H]1CC[C@@H]1[C@@H]2CC[C@]2(C)[C@@H](O)CC[C@@H]12 [DHT, dihydrotestosterone]
expression of 7 AR targets and PSA (8 genes) [5, 15]: regulated
expression of KLK3 (PSA) [5, 15]: comparably induced
GR mRNA levels after DHT exposure (GR mRNA [6]; charcoal stripped media, 8 hours): reduced

CC#C[C@]1(O)CC[C@H]2[C@@H]3CCC4=CC(=O)CCC4=C3[C@@H](c3ccc(N(C)C)cc3)C[C@@]21C [mefipristone]
effect on AR target gene expression [1]: activate
risk-benefit of GR inhibition in humans (GR [7]): acceptable risk-benefit profile

CNC(=O)c1ccc(N2C(=S)N(c3ccc(C#N)c(C(F)(F)F)c3)C(=O)C2(C)C)cc1F [enzalutamide]
growth of VCaP cells (VCaP cells [8]): inhibited growth
half-life of exponential decay in median GR protein signal upon withdrawal ([9]; LREX′ after enzalutamide withdrawal): 182 h
GR expression after continued drug exposure for 7 weeks [9, 16]: clear shift in GR expression in essentially all cells
doubling time of GR expression on re-exposure [9, 16]: 6.8 days
time to plateau in loss of GR expression upon withdrawal ([9]; followed to 17 weeks): ≤ 7 weeks
half-life in mice [10]: prolonged half-life
sensitivity of DU145 and PC3 cells (DU145 and PC3 cells): resistant
antiproliferative effect in vitro (LnCaP/AR and sub-lines): weak antiproliferative effect
median GR expression intensity ([11]; cells not previously exposed): no change
area under the GR staining population [11]: did increase
drop of GR mRNA levels after treatment discontinuation (GR mRNA [12]): ~5 fold
GR mRNA Expression (GR mRNA (NR3C1); listed as Enz): 29.8 and 24.2 and 24.0 and 14.3 and 0.5 and 127.7 and 53.0
effect on Dex activity at AR target genes ([5]; enzalutamide 10 micromolar): did not notably affect
effect on DHT regulation of the 8 genes [5, 17]: blocked
GR mRNA levels after withdrawal in vitro (GR mRNA [6]; LREX′ passaged without enzalutamide, 23 days): dropped as early as 1 day after discontinuation and continued to decline throughout the 23 days
effect of co-treatment on DHT reduction of GR mRNA (GR mRNA [6]; [17]): reversed
sensitivity of VCaP cells in vitro (VCaP cells [13]): enzalutamide-sensitive
effect on Dex-induced gene expression (heatmap) (LREX′ cells): not impacted
LNCaP/AR xenograft tumors during the first 28 days of treatment [3]: regress
mean percentage of GR positive cells at 8 weeks, poor responders (GR [14]): 29%
percentage of GR-positive cells at 8 weeks, good responders (GR [14]): 10%
good responders with maximal PSA decline greater than 50% (PSA; benefit for greater than 6 months): 11 of 13
poor responders with maximal PSA decline greater than 50% (PSA; discontinued earlier than 6 months): 1 of 14
